Literature values as cited in patent publication US10611908B2, “Micelles for mucoadhesive drug delivery” (McMaster University, priority 2015, dated 2020).

pKa	Structure (SMILES)
~4.6	C=C(C)C(=O)O [MAA, methacrylic acid]
~8.8	OB(O)c1ccccc1 [PBA, Phenylboronic acid]
